In ChEMBL document CHEMBL1131712, “Short synthesis and anti-rhinoviral activity of imidazo[1,2-a]pyridines: the effect of acyl groups at 3-position” (Bioorg Med Chem Lett, 1999):
Values after ≈ are worked out from the molar mass of the structure shown.

Key:
rhinovirus B14 = experiment: Inhibitory concentration required against Human rhinovirus-14 (HRV-14) using plaque reduction assay; format: functional, organism-based, Enterovirus; settings: Rhinovirus B
[1] = Cellular toxic concentration against Human rhinovirus-14 (HRV-14) using cytopathic effect assay(CPE/XTT); format: organism-based, Enterovirus; settings: read-out: TC50 (the source's name)

SMILES	IC50 (rhinovirus B14) [µg/mL]	CC50 [1] [µg/mL]
CC(C)S(=O)(=O)n1c(N)nc2ccc(/C(=N/O)c3ccccc3)cc21 [ENVIROXIME]	0.045 (≈ 0.126 µM)	–
CNC(=O)/C=C(\c1ccccc1)c1ccc2nc(N)c(C(C)=O)n2c1	2.48 (≈ 7.42 µM)	22.8 (≈ 68.2 µM)
CNC(=O)/C=C(\c1ccccc1)c1ccc2nc(N)c(C(=O)C(C)(C)C)n2c1	0.17 (≈ 0.452 µM)	> 10

Second part, led by results:

IC50 (rhinovirus B14) [µg/mL]	SMILES	CC50 [1] [µg/mL]
0.24 (≈ 0.605 µM)	CNC(=O)/C=C(\c1ccccc1)c1ccc2nc(N)c(C(=O)c3ccccc3)n2c1	2.95 (≈ 7.44 µM)
0.37 (≈ 0.893 µM)	CNC(=O)/C=C(\c1ccccc1)c1ccc2nc(N)c(C(=O)c3ccc(F)cc3)n2c1	3.97 (≈ 9.58 µM)
